Laboratory results as given in PubChem BioAssay (NCI).
Where “and” joins values, the source holds several entries; their conditions need not be identical. Equal entries are not always repeated.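 Exposure lasted 48 hours, with cells grown in 96-well plates and compounds tested at five concentrations. GI50 marks 50% less growth. TGI marks complete inhibition of growth.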

What was measured:
Test in all cases: growth of human tumour cells (NCI), 48 h
[1] = tested on: NCI-H23 lung
[2] = tested on: OVCAR-4 ovarian
[3] = tested on: 786-0 renal
[4] = tested on: TK-10 renal
[5] = tested on: IGROV1 ovarian
[6] = tested on: SF-539 CNS
[7] = tested on: SK-OV-3 ovarian
[8] = tested on: NCI-H522 lung
[9] = tested on: SR leukemia
[10] = tested on: MOLT-4 leukemia
[11] = tested on: HCT-15 colon
[12] = tested on: DMS 114 small cell lung
[13] = tested on: ACHN renal
[14] = tested on: HCT-116 colon
[15] = tested on: MALME-3M melanoma
[16] = tested on: LOX IMVI melanoma
[17] = tested on: SN12C renal
[18] = tested on: UACC-62 melanoma
[19] = tested on: SK-MEL-2 melanoma
[20] = tested on: A498 renal
[21] = tested on: UACC-257 melanoma
[22] = tested on: A549 NSCLC
[23] = tested on: SW-620 colon
[24] = tested on: SNB-78 CNS
[25] = tested on: HOP-62 NSCLC
[26] = tested on: COLO 205 colon
[27] = tested on: HOP-18 NSCLC
[28] = tested on: OVCAR-8 ovarian
[29] = tested on: K-562 leukemia
[30] = tested on: DMS 273 small cell lung
[31] = tested on: HT29 colon
[32] = tested on: NCI-H460 lung
[33] = tested on: HOP-92 NSCLC
[34] = tested on: HCC-2998 colon
[35] = tested on: NCI-H226 lung
[36] = tested on: RPMI-8226 leukemia
[37] = tested on: LXFL 529 NSCLC
[38] = tested on: KM20L2 colon
[39] = tested on: XF 498 CNS
[40] = tested on: SNB-19 CNS
[41] = tested on: OVCAR-5 ovarian
[42] = tested on: SF-268 CNS
[43] = tested on: SK-MEL-28 melanoma
[44] = tested on: SF-295 CNS
[45] = tested on: HL-60(TB) leukemia
[46] = tested on: RXF-631 renal
[47] = tested on: EKVX NSCLC
[48] = tested on: SNB-75 CNS
[49] = tested on: KM12 colon
[50] = tested on: OVCAR-3 ovarian
[51] = tested on: CAKI-1 renal
[52] = tested on: U251 CNS
[53] = tested on: RXF 393 renal
[54] = tested on: DLD-1 colon
[55] = tested on: DU-145 prostate
[56] = tested on: UO-31 renal
[57] = tested on: PC-3 prostate
[58] = tested on: SK-MEL-5 melanoma
[59] = tested on: NCI/ADR-RES ovarian
[60] = tested on: MCF7 breast
[61] = tested on: M19-MEL melanoma
[62] = tested on: T-47D breast
[63] = tested on: MDA-N
[64] = tested on: BT-549 breast
[65] = tested on: CCRF-CEM leukemia
[66] = tested on: M14 melanoma
[67] = tested on: MDA-MB-435
[68] = tested on: HS 578T breast

In the case of `COc1cc(CN[C@H]2CCc3cc(OC)c(OC)c(OC)c3-c3ccc(SC)c(=O)cc32)cc(OC)c1`, the GI50 [1] is reported as 22.8 nM, the TGI [1] is reported as 78.6 nM and 492 nM and the TGI [2] is reported as > 100000 nM. The GI50 [3] was 30.7 nM, the TGI [3] was 30800 nM and the GI50 [4] was 41.2 nM. The TGI [4] was 77100 nM, the GI50 [5] was 69 nM and the TGI [5] was > 100000 nM. For the same compound, the GI50 [6] was 17.3 nM, the TGI [6] was 45.5 nM and 42.4 nM and the GI50 [7] was 17.1 nM. For the same compound, the GI50 [8] was 21.2 nM, the TGI [8] was 67.7 nM and 52 nM and the TGI [9] was 19400 nM. The GI50 [10] was 47.6 nM, the TGI [10] was 85500 nM and the TGI [11] was 239 nM. For the same compound, the GI50 [12] was 16.6 nM, the TGI [12] was 50.5 nM and 61.3 nM and the GI50 [13] was 66.2 nM. The TGI [13] was > 100000 nM, the GI50 [14] was < 10 nM and the TGI [14] was 174 nM and 127 nM. For the same compound, the GI50 [15] was < 10 nM, the TGI [15] was > 100000 nM and the GI50 [16] was 17.3 nM. The GI50 [17] was 62.3 nM, the TGI [17] was > 100000 nM and the TGI [18] was 60.5 nM. The GI50 [19] was 18.4 nM, the TGI [19] was 474 nM and the TGI [20] was 167 nM. The GI50 [21] was 103 nM, the TGI [21] was > 100000 nM and the TGI [22] was > 100000 nM. The GI50 [23] was < 10 nM, the TGI [23] was > 100000 nM and the GI50 [24] was < 10 nM. The TGI [24] was > 100000 nM, the GI50 [25] was 81.4 nM and the TGI [25] was > 100000 nM. For the same compound, the GI50 [26] was 14.5 nM, the TGI [26] was 105 nM and 81.6 nM and the GI50 [27] was > 100000 nM. The TGI [27] was > 100000 nM, the GI50 [28] was 40 nM and the TGI [28] was 31800 nM. For the same compound, the TGI [29] was 10400 nM, the GI50 [30] was < 10 nM and the TGI [30] was 140 nM. For the same compound, the GI50 [31] was < 10 nM, the TGI [31] was 62.7 nM and 25.1 nM and the GI50 [32] was 31 nM. The GI50 [33] was 207 nM, the TGI [33] was 68700 nM and the GI50 [34] was 20.4 nM. For the same compound, the TGI [34] was 108 nM and 74.8 nM, the GI50 [35] was 23.1 nM and the TGI [35] was 95 nM and 91.9 nM. The TGI [36] was 24200 nM, the GI50 [37] was 21.4 nM and the TGI [37] was > 100000 nM. The GI50 [38] was 13 nM, the TGI [38] was 42.5 nM and 30.7 nM and the TGI [39] was 977 nM. For the same compound, the TGI [40] was > 100000 nM, the GI50 [41] was > 100000 nM and the TGI [41] was > 100000 nM. The GI50 [42] was 24.8 nM, the GI50 [43] was < 10 nM and the TGI [43] was > 100000 nM. For the same compound, the GI50 [44] was 18.7 nM, the GI50 [45] was 24 nM and the TGI [45] was > 100000 nM. For the same compound, the TGI [46] was 358 nM, the GI50 [47] was 28.7 nM and the TGI [47] was > 100000 nM. The TGI [48] was 64.1 nM, the GI50 [49] was < 10 nM and the TGI [49] was 482 nM and 137 nM. For the same compound, the GI50 [50] was 14.5 nM, the TGI [50] was 127 nM and 44.4 nM and the GI50 [51] was 28.2 nM. For the same compound, the TGI [51] was > 100000 nM, the GI50 [52] was 24.7 nM and the TGI [52] was 87.3 nM and 63.5 nM. For the same compound, the TGI [53] was 37.2 nM, the GI50 [54] was 23.2 nM and the TGI [54] was > 100000 nM.

In the case of `CCOC(=O)NC(=O)c1cn(CCCOC(=O)CCCCCCCCC(=O)OCCCn2cc(C(=O)NC(=O)OCC)c(=O)n(C)c2=O)c(=O)n(C)c1=O`, the TGI [1] is reported as > 100000 nM, the TGI [2] is reported as > 100000 nM and the TGI [3] is reported as > 100000 nM. For the same compound, the TGI [4] was > 100000 nM, the TGI [5] was > 100000 nM and the TGI [6] was > 100000 nM. For the same compound, the TGI [7] was > 100000 nM, the TGI [55] was > 100000 nM and the TGI [56] was > 100000 nM. The TGI [57] was > 100000 nM, the TGI [8] was > 100000 nM and the TGI [9] was > 100000 nM. For the same compound, the TGI [10] was > 100000 nM, the TGI [11] was > 100000 nM and the TGI [58] was > 100000 nM. The TGI [12] was > 100000 nM, the TGI [13] was > 100000 nM and the TGI [14] was > 100000 nM. For the same compound, the TGI [15] was > 100000 nM, the TGI [59] was > 100000 nM and the TGI [16] was > 100000 nM. The TGI [17] was > 100000 nM, the TGI [18] was > 100000 nM and the TGI [19] was > 100000 nM. For the same compound, the TGI [20] was > 100000 nM, the TGI [21] was > 100000 nM and the TGI [22] was > 100000 nM. The TGI [60] was > 100000 nM, the TGI [23] was > 100000 nM and the TGI [25] was > 96600 nM. The TGI [26] was > 100000 nM, the TGI [27] was > 100000 nM and the TGI [28] was > 100000 nM. The TGI [29] was > 100000 nM, the TGI [30] was > 100000 nM and the TGI [31] was > 100000 nM. The TGI [32] was > 100000 nM, the TGI [33] was > 100000 nM and the TGI [61] was > 100000 nM. For the same compound, the TGI [34] was > 100000 nM, the TGI [62] was > 100000 nM and the TGI [63] was > 100000 nM. The TGI [35] was > 100000 nM, the TGI [36] was > 100000 nM and the TGI [37] was > 100000 nM. For the same compound, the TGI [38] was > 100000 nM, the TGI [39] was > 93800 nM and the TGI [40] was > 100000 nM. The TGI [41] was > 100000 nM, the TGI [64] was > 100000 nM and the TGI [65] was > 46400 nM. The TGI [42] was > 100000 nM, the TGI [43] was > 100000 nM and the TGI [66] was > 100000 nM. The TGI [67] was > 100000 nM, the TGI [44] was > 100000 nM and the TGI [45] was > 100000 nM. For the same compound, the TGI [46] was > 100000 nM, the TGI [47] was > 100000 nM and the TGI [48] was > 77800 nM. The TGI [49] was > 100000 nM, the TGI [50] was > 100000 nM and the TGI [51] was > 100000 nM. For the same compound, the TGI [52] was > 100000 nM, the TGI [68] was > 100000 nM and the TGI [53] was > 100000 nM. For the same compound, the TGI [54] was > 100000 nM.
